These results are taken from patent US4207343A, “1-Phenyl-3-(substituted phenoxy)propylamines” (priority 1978, dated 1980).

Assay [1] relates to serotonin uptake versus norepinephrine uptake. Kind of assay: Relative effectiveness in inhibiting serotonin versus norepinephrine uptake.
Assay [2] deals with serotonin uptake by synaptosomes from rat brain. In words: Blockage of serotonin uptake in vitro by synaptosomes from rat brain (Table 1). It counts as biochemical. The note with it: serotonin 0.1 μuM, read-out: IC50 Serotonin (concentration that blocks uptake by 50 percent). The source says: (§1) This blockade is shown both in vitro using radioactive labelled compounds to determine the amount of monoamine uptake by synaptosomes from rat brain, and in vivo by a variety of methods using the procedure of Wong and Bymaster, Biochem. Pharmacol., 25, 1978 (1976). Among the physiologically active monoamines whose uptake is blocked by the compounds of this invention are included serotonin, norepinephrine and dopamine (3,4-dihydroxyphenylethylamine). […] Table 1 which follows sets forth the results of some of the in vitro determinations of the blockage of monoamine uptake by the compounds of this invention. In the table, column 1 gives the R substituent on the 1-phenylpropylamine, colums 2 and 3, the R^1 and R^2 substituents on the amine nitrogen and columns […], the concentration in micrograms per ml. that blocks the uptake of a particular amine by 50 percent (IC50) for the amines, serotonin and norephinephrine. At the head of each column is given the concentration of the particular monoamine used in the experiment.

The target in assay [3] is T1, uptake of norepinephrine (Rattus norvegicus, UniProt Q63380).
T1 construct: from tissue; host or cells: synaptosomes of Sprague-Dawley rat brain (cortex, by 'similar experiment')
T1 sequence (Q63380 1-617): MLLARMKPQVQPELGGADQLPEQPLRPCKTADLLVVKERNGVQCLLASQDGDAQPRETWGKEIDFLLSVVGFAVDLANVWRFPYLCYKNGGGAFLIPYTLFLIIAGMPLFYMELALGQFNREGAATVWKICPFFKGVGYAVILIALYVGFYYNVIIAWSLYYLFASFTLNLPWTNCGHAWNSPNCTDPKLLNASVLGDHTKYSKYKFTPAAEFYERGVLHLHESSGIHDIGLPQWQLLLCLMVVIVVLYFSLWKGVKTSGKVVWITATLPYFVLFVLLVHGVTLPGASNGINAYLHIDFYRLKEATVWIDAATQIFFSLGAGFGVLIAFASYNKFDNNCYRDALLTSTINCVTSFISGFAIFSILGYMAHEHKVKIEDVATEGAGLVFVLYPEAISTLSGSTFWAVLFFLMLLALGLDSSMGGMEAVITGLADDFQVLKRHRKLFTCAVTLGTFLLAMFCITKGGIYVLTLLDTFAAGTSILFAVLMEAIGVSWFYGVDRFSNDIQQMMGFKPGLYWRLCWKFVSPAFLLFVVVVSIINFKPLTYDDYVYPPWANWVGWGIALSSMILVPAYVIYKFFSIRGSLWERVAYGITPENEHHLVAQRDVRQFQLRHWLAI
In words: Inhibition of norepinephrine uptake in synaptosomes, kinetics. It counts as biochemical, Sprague-Dawley rats.
Method: (§3) The uptake of serotonin in cortical synaptosomes and in platelets of human plasma in the presence of this compound were studied. Corticosynaptosomes were prepared as follows: Sprague-Dawley rats weighing about 150 g. were decapitated and their brains immediately removed and dissected. Crude synaptosomes were prepared from a 10 percent homogenate in 0.32 M scurose and in 10 μM glucose by differential centrifugation according to the procedure of Wong and Bymaster (loc. cit.).

Assay [4] has as its system norepinephrine uptake. In words: In vivo decrease in norepinephrine uptake after intraperitoneal injection. The note with it: 100 mg./kg level, hydrochloride salt. Here is the method: (§2) There was also a decrease in norepinephrine uptake at a 100 mg./kg level but the reduction was less than 50% at this high dose level.
The subject of assay [5] is norepinephrine uptake by synaptosomes from rat brain. Kind of assay: Blockage of norepinephrine uptake in vitro by synaptosomes from rat brain (Table 1). It counts as biochemical. The note with it: norepinephrine 0.48 μuM, read-out: IC50 Norepinephrine (concentration that blocks uptake by 50 percent).
Text: as §1

In assay [6] the target is uptake of serotonin in cortical synaptosomes (Rattus norvegicus, UniProt P31652). Kind of assay: Inhibition of serotonin uptake in cortical synaptosomes, kinetics. It is filed as biochemical, Sprague-Dawley rats.
uptake of serotonin in cortical synaptosomes, sequence (P31652 whole entry): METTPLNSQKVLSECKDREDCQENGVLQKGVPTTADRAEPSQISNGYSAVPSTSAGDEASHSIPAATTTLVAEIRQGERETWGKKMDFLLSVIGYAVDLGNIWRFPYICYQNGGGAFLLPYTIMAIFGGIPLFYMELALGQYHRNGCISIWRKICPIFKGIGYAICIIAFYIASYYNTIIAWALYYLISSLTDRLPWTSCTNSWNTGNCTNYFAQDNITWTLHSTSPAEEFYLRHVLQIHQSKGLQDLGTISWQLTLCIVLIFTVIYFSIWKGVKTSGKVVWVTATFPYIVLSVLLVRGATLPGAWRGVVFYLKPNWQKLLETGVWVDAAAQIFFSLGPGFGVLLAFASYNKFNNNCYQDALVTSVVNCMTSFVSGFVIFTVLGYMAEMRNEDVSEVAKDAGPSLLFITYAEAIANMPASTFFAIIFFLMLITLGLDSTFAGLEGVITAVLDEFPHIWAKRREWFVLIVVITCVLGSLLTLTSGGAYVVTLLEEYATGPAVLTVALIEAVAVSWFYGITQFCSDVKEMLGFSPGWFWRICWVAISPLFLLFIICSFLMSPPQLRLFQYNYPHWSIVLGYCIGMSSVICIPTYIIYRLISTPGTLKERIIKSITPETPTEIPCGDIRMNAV
Method: as §3
The subject of assay [7] is uptake of serotonin by hypothalamic synaptosomes. In words: In vivo inhibition of serotonin uptake by hypothalamic synaptosomes after intraperitoneal injection. As to conditions: ip, as hydrochloride salt, read-out: calculated ED50 (effective dose), inhibition of serotonin uptake by hypothalamic synaptosomes. Here is the method: as §2
Assay [8] concerns uptake of serotonin by platelets. The note with it: human platelet-rich plasma; estimated value.
Method: A study of the uptake of serotonin from platelets was carried out as follows: platelet-rich plasma from human volunteers was prepared according to the method of Sneddon, Brit. […] The platelet uptake of serotonin was determined by the procedure of Horng and Wong, Biochem. Pharmacol., 25, 865 (1976).
For assay [9], the system named is uptake of physiologically active monoamines. In words: Blocking of uptake of physiologically active monoamines (serotonin, norepinephrine, dopamine). As to conditions: in vitro and in vivo.
Text: as §1

For assay [10], the target named is dopamine uptake from synaptosomes isolated from corpus striatum (Rattus norvegicus, UniProt P23977). In words: Inhibition of dopamine uptake in synaptosomes isolated from corpus striatum.
dopamine uptake from synaptosomes isolated from corpus striatum, sequence (P23977 whole entry): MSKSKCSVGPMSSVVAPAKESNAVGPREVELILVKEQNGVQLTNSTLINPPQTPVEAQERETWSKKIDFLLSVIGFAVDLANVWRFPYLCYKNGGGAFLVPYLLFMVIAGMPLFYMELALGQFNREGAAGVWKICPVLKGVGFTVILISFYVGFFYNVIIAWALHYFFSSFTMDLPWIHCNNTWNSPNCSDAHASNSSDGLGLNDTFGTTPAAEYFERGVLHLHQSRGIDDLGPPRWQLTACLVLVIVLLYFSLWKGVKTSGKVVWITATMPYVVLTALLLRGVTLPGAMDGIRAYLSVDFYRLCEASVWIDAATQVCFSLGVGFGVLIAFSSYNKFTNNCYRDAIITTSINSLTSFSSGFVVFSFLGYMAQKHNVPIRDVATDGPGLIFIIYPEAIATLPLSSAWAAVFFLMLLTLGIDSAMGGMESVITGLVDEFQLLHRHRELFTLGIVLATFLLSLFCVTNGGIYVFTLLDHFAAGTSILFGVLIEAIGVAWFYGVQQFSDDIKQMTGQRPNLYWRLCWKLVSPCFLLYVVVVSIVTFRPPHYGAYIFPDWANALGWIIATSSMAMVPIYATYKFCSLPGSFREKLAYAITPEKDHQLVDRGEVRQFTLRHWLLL
Assay [11] concerns chronic undifferentiated schizophrenic patients. The note with it: oral administration, cited from earlier work.

The term Ki denotes the dissociation constant of the complex between target and ligand, obtained from inhibition or displacement. As usually defined, the ED50 is the midpoint of the dose-response relation. With `Cc1ccc(OCCC(c2ccccc2)N(C)C)cc1` (stereo not shown), the “relative effectiveness, serotonin versus norepinephrine uptake (in words)” value in assay [1] was “far more effective in inhibiting serotonin uptake than in inhibiting norepinephrine uptake”. The IC50 in assay [2] was determined as 80 nM; in assay [5], 5000 nM. The “mode of inhibition of norepinephrine uptake” value in [3] was “competitively inhibited the uptake of norepinephrine”. Besides, the Ki in assay [3] (synaptosomes, competitive, read-out: inhibitory constant KI, norepinephrine uptake) came out at 2200 nM; in assay [6] (cortical synaptosomes, compound at 0.01, 0.05 and 0.1 μM, competitive, read-out: inhibitor constant KI, serotonin uptake), 60 nM; in assay [10], 2500 nM. In assay [4], the “reduction in norepinephrine uptake” value is reported as “less than 50%”. In [6] (0.01, 0.05 and 0.1 μM), the “mode of inhibition of serotonin uptake” value is on record as “competitively inhibited uptake of serotonin”. For the same compound, the ED50 in [7] was 12 mg/kg. Moreover, the “estimated IC50, serotonin uptake by platelets” value in [8] is 14 nmol. Besides, in assay [9], the “block of uptake of monoamines (in words)” value was “particularly active in inhibiting the uptake of biogenic amines”.

As to `NC(CCOc1ccccc1)c1ccccc1` (stereo not shown) [phenyl, H, H, 1-Phenyl-3-phenoxypropylamine], the IC50 in [2] was 5600 nM; in [5], 560 nM.

As for `CNC(CCOc1ccccc1)c1ccccc1` (stereo not shown) [phenyl, CH3, H, N-methyl 3-phenoxy-1-phenylpropylamine], the IC50 is 1000 nM in assay [2] and 360 nM in assay [5].

For the compound `NC(CCOc1ccc(C(F)(F)F)cc1)c1ccccc1` (stereo not shown) [p-trifluoromethylphenyl, H, H, 1-phenyl-3-(p-trifluoromethylphenoxy)propylamine], the IC50 in assay [2] was found to be 320 nM; in [5], 10000 nM.

In the case of `COc1cccc(OCCC(N)c2ccccc2)c1` (stereo not shown) [m-anisyl, H, H, 1-Phenyl-3-(m-anisyloxy)propylamine], the IC50 worked out at 2000 nM in [2] and 3000 nM in assay [5].

Regarding `COc1ccccc1OCCC(c1ccccc1)N(C)C` (stereo not shown) [o-anisyl, CH3, CH3, N,N-dimethyl 3-(o-anisyloxy)-1-phenylpropylamine], the values for the IC50 in assay [2] and in assay [5] were 100 nM and 300 nM, respectively.

Take `COc1ccccc1OCCC(N)c1ccccc1` (stereo not shown) [o-anisyl, H, H, 1-phenyl-3-(o-anisyloxy)propylamine]: the IC50 stood at 4300 nM in [2] and 1400 nM in assay [5].

With `Cc1cccc(OCCC(N)c2ccccc2)c1` (stereo not shown) [m-tolyl, H, H], the values for the IC50 in assay [2] and in [5] were 1400 nM and 5700 nM, respectively.

Take `CNC(CCOc1ccccc1OC)c1ccccc1` (stereo not shown) [o-anisyl, CH3, H, N-methyl 1-phenyl-3-(o-anisyloxy)propylamine]: the IC50 in assay [2] and in assay [5] was 500 nM each time.

Consider `COc1ccc(OCCC(N)c2ccccc2)cc1` (stereo not shown) [p-anisyl, H, H, 3-(p-anisyloxy)-1-phenylpropylamine], for which the IC50 was 350 nM in assay [2] and 7000 nM in [5].

As for `CN(C)C(CCOc1ccccc1)c1ccccc1` (stereo not shown) [phenyl, CH3, CH3, N,N-dimethyl 1-phenyl-3-phenoxypropylamine], the IC50 in [2] was found to be 1000 nM; in assay [5] it was 700 nM.

Turning to `Cc1cccc(OCCC(c2ccccc2)N(C)C)c1` (stereo not shown) [m-tolyl, CH3, CH3], the figures for the IC50 in assay [2] and in assay [5] were 80 nM and 5100 nM, respectively.

Consider `Cc1ccccc1OCCC(N)c1ccccc1` (stereo not shown) [o-tolyl, H, H, 3-(o-cresol)-1-phenylpropylamine], for which the IC50 in assay [2] is 350 nM; in assay [5], 4600 nM.

Regarding `N[C@@H](Cc1c[nH]c2ccc(O)cc12)C(=O)O` [l-5-hydroxytryptophane], the “number of schizophrenic patients improved, of 7” value in assay [11] (6 of 7 patients) is reported as 6 patients. Besides, in assay [11], the “improvement in schizophrenic patients (in words)” value was “mild to moderate improvement”.

`CN(C)C(CCOc1ccc(C(F)(F)F)cc1)c1ccccc1` (stereo not shown) [p-trifluoromethylphenyl, CH3, CH3, N,N-dimethyl 1-phenyl-3-(p-trifluoromethylphenoxy)-propylamine]: the figures for the IC50 in [2] and in assay [5] were 210 nM and 10000 nM, respectively.

For the compound `CNC(CCOc1ccc(C(F)(F)F)cc1)c1ccccc1` (stereo not shown) [p-trifluoromethylphenyl, CH3, H, N-methyl 1-phenyl-3-(p-trifluoromethylphenoxy)-propylamine], the IC50 amounted to 210 nM in [2] and 10000 nM in assay [5].

On to `Cc1ccc(OCCC(N)c2ccccc2)cc1` (stereo not shown) [p-tolyl, H, H], for which the IC50 was 400 nM in [2] and 2100 nM in assay [5].

Regarding `COc1ccc(OCCC(c2ccccc2)N(C)C)cc1` (stereo not shown) [p-anisyl, CH3, CH3, N,N-dimethyl 3-(p-anisyloxy)-1-phenylpropylamine], the IC50 in assay [2] stood at 280 nM; in [5] it was 5100 nM.
